Assay results from patent publication US20240279220A1, “INDOLE COMPOUNDS AND METHODS OF USE” (Genzyme Corporation, priority 2021, published 2024).

tested on: NBD1/3D; experiment: Aggregation analysis using differential static light scattering (DSLS), NBD1 thermal stability; format: binding, Human; settings: ΔTagg versus DMSO control; compound at 100 μM
Outline: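 Thermal stabilisation reported as ΔTagg, i.e. aggregation temperature relative to averaged DMSO wells. Tagg came from the inflection of differential static light scattering imaged 25–70 °C while NBD1 (0.2 mg/ml, Tris pH 7.6 buffer containing ATP, MgCl2, DTT, glycerol) was ramped 1 °C/min.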

Q: `CC(O)(c1cccc(CCC(=O)O)c1)c1cnc(-c2cc(Oc3c(F)cc4[nH]ccc4c3S(C)(=O)=O)ccc2F)[nH]1` (centres unmarked) [Example 26, 3-(3-(1-(2-(2-Fluoro-5-((6-fluoro-4-(methylsulfonyl)-1H-indol-5-yl)oxy)phenyl)-1H-imidazol-5-yl)-1-hydroxyethyl)phenyl)propanoic acid] was tested. Which “DSLS NBD1/3D Human Stability delta-T (° C.) @ 100 (μM)” value (“DSLS NBD1/3D Human Stability delta-T” below) did it give?
A: A (A: T ≥ 10° C.)

Q: With `CCS(=O)(=O)c1c(Oc2ccc(F)c(-c3ncc(C(C)(O)c4cccc(CCC(=O)O)c4)[nH]3)c2)c(F)cc2[nH]ccc12` (centres unmarked) [Example 27, 3-(3-(1-(2-(5-((4-(ethylsulfonyl)-6-fluoro-1H-indol-5-yl)oxy)-2-fluorophenyl)-1H-imidazol-5-yl)-1-hydroxyethyl)phenyl)propanoic acid] as the molecule, how does the “DSLS NBD1/3D Human Stability delta-T” value read?
A: B (B: 5-10° C.)

Q: `CC(O)(c1cccc(CCC(=O)O)c1)c1cnc(-c2cccc(Oc3c(F)cc4[nH]ccc4c3S(=O)(=O)CC(F)F)c2)[nH]1` (centres unmarked) [Example 28, 3-(3-(1-(2-(3-((4-((2,2-difluoroethyl)sulfonyl)-6-fluoro-1H-indol-5-yl)oxy)phenyl)-1H-imidazol-5-yl)-1-hydroxyethyl)phenyl)propanoic acid] was tested. Which “DSLS NBD1/3D Human Stability delta-T” value did it give?
A: A (A: T ≥ 10° C.)

Q: `CC(C)S(=O)(=O)c1c(Oc2ccc(F)c(-c3nc(C(C)(O)c4cccc(CCC(=O)O)c4)c[nH]3)c2)c(F)cc2[nH]ccc12` (centres unmarked) [Example 29, 3-(3-(1-(2-(2-fluoro-5-((6-fluoro-4-(isopropylsulfonyl)-1H-indol-5-yl)oxy)phenyl)-1H-imidazol-4-yl)-1-hydroxyethyl)phenyl)propanoic acid] was tested. Which “DSLS NBD1/3D Human Stability delta-T” value did it give?
A: B (B: 5-10° C.)

Q: For `CC(O)(c1cccc(CCC(N)=O)c1)c1cnc(-c2cc(Oc3c(F)cc4[nH]ccc4c3S(C)(=O)=O)ccc2F)[nH]1` (centres unmarked) [Example 30, 3-(3-(1-(2-(2-Fluoro-5-((6-fluoro-4-(methylsulfonyl)-1H-indol-5-yl)oxy)phenyl)-1H-imidazol-5-yl)-1-hydroxyethyl)phenyl)propanamide], which “DSLS NBD1/3D Human Stability delta-T” value is on record?
A: B (B: 5-10° C.)

Q: How did the “DSLS NBD1/3D Human Stability delta-T” value turn out when `Cn1nc(-c2cccc(Oc3c(F)cc4[nH]ccc4c3S(C)(=O)=O)c2)nc1Cc1cccc(CCC(=O)O)c1` [Example 31, 3-(3-((3-(3-((6-Fluoro-4-(methylsulfonyl)-1H-indol-5-yl)oxy)phenyl)-1-methyl-1H-1,2,4-triazol-5-yl)methyl)phenyl)propanoic acid] was run?
A: B (B: 5-10° C.)

Q: How did the “DSLS NBD1/3D Human Stability delta-T” value turn out when `CS(=O)(=O)c1c(Oc2cccc(-c3ncn(Cc4cccc(CCC(=O)O)c4)n3)c2)c(F)cc2[nH]ccc12` [Example 32, 3-(3-((3-(3-((6-Fluoro-4-(methylsulfonyl)-1H-indol-5-yl)oxy)phenyl)-1H-1,2,4-triazol-1-yl)methyl)phenyl)propanoic acid] was run?
A: B (B: 5-10° C.)

Q: How did the “DSLS NBD1/3D Human Stability delta-T” value turn out when `C[S+]([O-])c1c(Oc2cccc(-c3ncn(Cc4cccc(CCC(=O)O)c4)n3)c2)c(F)cc2[nH]ccc12` (centres unmarked) [Example 33, 3-(3-((3-(3-((6-Fluoro-4-(methylsulfinyl)-1H-indol-5-yl)oxy)phenyl)-1H-1,2,4-triazol-1-yl)methyl)phenyl)propanoic acid] was run?
A: B (B: 5-10° C.)

Q: With `CS(=O)(=O)c1c(Oc2cccc(-c3ncn(Cc4cccc(CCC(N)=O)c4)n3)c2)c(F)cc2[nH]ccc12` [Example 34, 3-(3-((3-(3-((6-Fluoro-4-(methylsulfonyl)-1H-indol-5-yl)oxy)phenyl)-1H-1,2,4-triazol-1-yl)methyl)phenyl)propanamide] as the molecule, how does the “DSLS NBD1/3D Human Stability delta-T” value read?
A: B (B: 5-10° C.)

Q: Which “DSLS NBD1/3D Human Stability delta-T” value does the source give for `CS(=O)(=O)c1c(Oc2cccc(-c3nc(Cc4cccc(CCC(=O)O)c4)cs3)c2)c(F)cc2[nH]ccc12` [Example 35, 3-(3-((2-(3-((6-Fluoro-4-(methylsulfonyl)-1H-indol-5-yl)oxy)phenyl)thiazol-4-yl)methyl)phenyl)propanoic acid] here?
A: B (B: 5-10° C.)

Q: Which “DSLS NBD1/3D Human Stability delta-T” value does the source give for `C[S+]([O-])c1c(Oc2cccc(-c3nc(Cc4cccc(CCC(=O)O)c4)cs3)c2)c(F)cc2[nH]ccc12` (centres unmarked) [Example 36, 3-(3-((2-(3-((6-Fluoro-4-(methylsulfinyl)-1H-indol-5-yl)oxy)phenyl)thiazol-4-yl)methyl)phenyl)propanoic acid] here?
A: B (B: 5-10° C.)

Q: With `CC(O)(c1cccc(CCC(=O)O)c1)c1csc(-c2cccc(Oc3c(F)cc4[nH]ccc4c3S(C)(=O)=O)c2)n1` (centres unmarked) [Example 37, 3-(3-(1-(2-(3-((6-Fluoro-4-(methylsulfonyl)-1H-indol-5-yl)oxy)phenyl)thiazol-4-yl)-1-hydroxyethyl)phenyl)propanoic acid] as the molecule, how does the “DSLS NBD1/3D Human Stability delta-T” value read?
A: B (B: 5-10° C.)

Q: With `CC(c1cccc(CCC(=O)O)c1)n1ccc(-c2cc(Oc3c(F)cc4[nH]ccc4c3S(C)(=O)=O)ccc2F)n1` (centres unmarked) [Example 38, 3-(3-(1-(3-(2-Fluoro-5-((6-fluoro-4-(methylsulfonyl)-1H-indol-5-yl)oxy)phenyl)-1H-pyrazol-1-yl)ethyl)phenyl)propanoic acid] as the molecule, how does the “DSLS NBD1/3D Human Stability delta-T” value read?
A: B (B: 5-10° C.)

Q: For `CS(=O)(=O)c1c(Oc2cccc(-c3nc(Cc4cccc(CCC(=O)O)c4)co3)c2)c(F)cc2[nH]ccc12` [Example 42, 3-(3-((2-(3-((6-Fluoro-4-(methylsulfonyl)-1H-indol-5-yl)oxy)phenyl)oxazol-4-yl)methyl)phenyl)propanoic acid], which “DSLS NBD1/3D Human Stability delta-T” value is on record?
A: B (B: 5-10° C.)

Q: For `CS(=O)(=O)c1c(Oc2ccc(F)c(-c3ncc(C4(c5cccc(CCC(=O)O)c5)OCCCO4)[nH]3)c2)c(F)cc2[nH]ccc12` [Example 44, 3-(3-(2-(2-(2-Fluoro-5-((6-fluoro-4-(methylsulfonyl)-1H-indol-5-yl)oxy)phenyl)-1H-imidazol-5-yl)-1,3-dioxan-2-yl)phenyl)propanoic acid], which “DSLS NBD1/3D Human Stability delta-T” value is on record?
A: A (A: T ≥ 10° C.)

Q: Which “DSLS NBD1/3D Human Stability delta-T” value does the source give for `CS(=O)(=O)c1c(Oc2ccc(F)c(-c3ncc(C4(c5cccc(CCC(=O)O)c5)CCC4)[nH]3)c2)c(F)cc2[nH]ccc12` [Example 46, 3-(3-(1-(2-(2-fluoro-5-((6-fluoro-4-(methylsulfonyl)-1H-indol-5-yl)oxy)phenyl)-1H-imidazol-5-yl)cyclobutyl)phenyl)propanoic acid] here?
A: A (A: T ≥ 10° C.)

Q: With `CS(=O)(=O)c1c(Oc2ccc(F)c(-c3nc(C4(c5cccc(CCC(=O)O)c5)CCCC4)c[nH]3)c2)c(F)cc2[nH]ccc12` [Example 47, 3-(3-(1-(2-(2-fluoro-5-((6-fluoro-4-(methylsulfonyl)-1H-indol-5-yl)oxy)phenyl)-1H-imidazol-5-yl)cyclopentyl)phenyl)propanoic acid] as the molecule, how does the “DSLS NBD1/3D Human Stability delta-T” value read?
A: A (A: T ≥ 10° C.)

Q: Which “DSLS NBD1/3D Human Stability delta-T” value does the source give for `CC(C#N)(c1cccc(CCC(=O)O)c1)c1c[nH]c(-c2cc(Oc3c(F)cc4[nH]ccc4c3S(C)(=O)=O)ccc2F)n1` (centres unmarked) [Example 48, 3-(3-(1-Cyano-1-(2-(2-fluoro-5-((6-fluoro-4-(methylsulfonyl)-1H-indol-5-yl)oxy)phenyl)-1H-imidazol-4-yl)ethyl)phenyl)propanoic acid] here?
A: A (A: T ≥ 10° C.)

Q: How did the “DSLS NBD1/3D Human Stability delta-T” value turn out when `CC(C#N)(c1cccc(CCC(=O)O)c1)c1cnc(-c2cc(Oc3c(F)c(F)c4[nH]ccc4c3S(C)(=O)=O)ccc2F)[nH]1` (centres unmarked) [Example 49, 3-(3-(1-Cyano-1-(2-(5-((6,7-difluoro-4-(methylsulfonyl)-1H-indol-5-yl)oxy)-2-fluorophenyl)-1H-imidazol-5-yl)ethyl)phenyl)propanoic acid] was run?
A: A (A: T ≥ 10° C.)

Q: With `Cc1c(Oc2ccc(F)c(-c3ncc(C(C)(C#N)c4cccc(CCC(=O)O)c4)[nH]3)c2)c(F)cc2[nH]ccc12` (centres unmarked) [Example 50, 3-(3-(1-cyano-1-(2-(2-fluoro-5-((6-fluoro-4-methyl-1H-indol-5-yl)oxy)phenyl)-1H-imidazol-5-yl)ethyl)phenyl)propanoic acid] as the molecule, how does the “DSLS NBD1/3D Human Stability delta-T” value read?
A: B (B: 5-10° C.)

Q: With `CCC(C#N)(c1cccc(CCC(=O)O)c1)c1c[nH]c(-c2cc(Oc3c(F)cc4[nH]ccc4c3C)ccc2F)n1` (centres unmarked) [Example 51, 3-(3-(1-cyano-1-(2-(2-fluoro-5-((6-fluoro-4-methyl-1H-indol-5-yl)oxy)phenyl)-1H-imidazol-4-yl)propyl)phenyl)propanoic acid] as the molecule, how does the “DSLS NBD1/3D Human Stability delta-T” value read?
A: A (A: T ≥ 10° C.)

Q: `CC(C#N)(c1cccc(CCC(=O)O)c1)c1cnc(-c2cc(Oc3c(F)c(F)c4[nH]ccc4c3C3CC3)ccc2F)[nH]1` (centres unmarked) [Example 53, 3-(3-(1-cyano-1-(2-(5-((4-cyclopropyl-6,7-difluoro-1H-indol-5-yl)oxy)-2-fluorophenyl)-1H-imidazol-5-yl)ethyl)phenyl)propanoic acid] was tested. Which “DSLS NBD1/3D Human Stability delta-T” value did it give?
A: B (B: 5-10° C.)

Q: For `CC(C#N)(c1cccc(CCC(=O)O)c1)c1cnc(-c2cc(Oc3c(F)c(F)c4[nH]ccc4c3F)ccc2F)[nH]1` (centres unmarked) [Example 54, 3-(3-(1-cyano-1-(2-(2-fluoro-5-((4,6,7-trifluoro-1H-indol-5-yl)oxy)phenyl)-1H-imidazol-5-yl)ethyl)phenyl)propanoic acid], which “DSLS NBD1/3D Human Stability delta-T” value is on record?
A: B (B: 5-10° C.)

Q: With `CC(C#N)(c1cccc(CCC(=O)O)c1)c1c[nH]c(-c2cc(Oc3c(F)cc4[nH]ccc4c3CC(F)F)ccc2F)n1` (centres unmarked) [Example 55, 3-(3-(1-cyano-1-(2-(5-((4-(2,2-difluoroethyl)-6-fluoro-1H-indol-5-yl)oxy)-2-fluorophenyl)-1H-imidazol-4-yl)ethyl)phenyl)propanoic acid] as the molecule, how does the “DSLS NBD1/3D Human Stability delta-T” value read?
A: B (B: 5-10° C.)

Q: Which “DSLS NBD1/3D Human Stability delta-T” value does the source give for `Cc1c(Oc2ccc(F)c(-c3ncc(C(C)(C#N)c4cccc(CCC(=O)O)c4)[nH]3)c2)c(F)c(F)c2[nH]ccc12` (centres unmarked) [Example 56, 3-(3-(1-cyano-1-(2-(5-((6,7-difluoro-4-methyl-1H-indol-5-yl)oxy)-2-fluorophenyl)-1H-imidazol-5-yl)ethyl)phenyl)propanoic acid] here?
A: B (B: 5-10° C.)

Q: With `Cc1c(Oc2ccc(F)c(-c3ncc(C(C)(C#N)c4cccc(CCC(=O)O)c4)[nH]3)c2)c(F)c(F)c2[nH]cc(Cl)c12` (centres unmarked) [Example 57, 3-(3-(1-(2-(5-((3-chloro-6,7-difluoro-4-methyl-1H-indol-5-yl)oxy)-2-fluorophenyl)-1H-imidazol-5-yl)-1-cyanoethyl)phenyl)propanoic acid] as the molecule, how does the “DSLS NBD1/3D Human Stability delta-T” value read?
A: B (B: 5-10° C.)
